Laboratory results published in ChEMBL document CHEMBL5537140, “Discovery and exploration of novel somatostatin receptor subtype 5 (SSTR5) antagonists for the treatment of cholesterol gallstones” (Eur J Med Chem, 2024).
Calls of active or inactive are those of the source. The calls are words filed in the database; no cut-off is given here.

How the values were obtained:
CHO = experiment: Cytotoxicity against CHO cells upto 10 uM; settings: chinese hamster
[1] = target: T1, Somatostatin receptor type 5 (Mus musculus, UniProt O08858); experiment: Antagonist activity at N-terminal HA-tagged mouse SSTR5 expressed in CHO cells assessed as change in intracellular […] level preincubated with agonist for 10 mins followed by compound addition by CRE-driven luciferase reporter based microplate reader; format: functional, cell-based
T1 sequence (O08858 whole entry): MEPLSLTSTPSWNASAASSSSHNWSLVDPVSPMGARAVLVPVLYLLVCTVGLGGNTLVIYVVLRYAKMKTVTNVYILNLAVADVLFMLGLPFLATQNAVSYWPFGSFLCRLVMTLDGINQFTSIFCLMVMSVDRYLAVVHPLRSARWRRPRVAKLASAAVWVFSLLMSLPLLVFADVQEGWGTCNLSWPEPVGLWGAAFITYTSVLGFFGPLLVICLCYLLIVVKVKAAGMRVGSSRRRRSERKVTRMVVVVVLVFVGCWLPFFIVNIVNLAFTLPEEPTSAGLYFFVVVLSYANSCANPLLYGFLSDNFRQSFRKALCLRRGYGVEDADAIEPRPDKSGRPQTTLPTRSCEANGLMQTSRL

[2] = target: Somatostatin receptor type 5 (Homo sapiens, UniProt P35346); experiment: Antagonist activity at N-terminal HA-tagged human SSTR5 expressed in CHO cells assessed as change in intracellular […] level preincubated with agonist for 10 mins followed by compound addition by CRE-driven luciferase reporter based microplate reader; format: functional, cell-based
[3] = Metabolic stability in mouse liver microsomes assessed as parent compound remaining at 1 uM incubated for 30 mins in presence of NADPH by LC-MS/MS analysis; format: ADME, Microsome; settings: read-out: Stability
[4] = target: Voltage-gated inwardly rectifying potassium channel KCNH2 (Homo sapiens, UniProt Q12809); experiment: Inhibition of hERG expressed in CHO cells by Qpatch automatic patch clamp method
[5] = Oral bioavailability in C57BL/6J mouse at 3 mg/kg measured at 0.25 to 24 hrs by LC-MS/MS analysis; format: ADME, organism-based; settings: in vivo, time 0.25-24 hrs
Mus musculus [6] = experiment: Protection against lithogenic diet induced cholesterol gallstone C57BL/6J mouse model assessed as reduction in dense-cored gallstone precipitate at 60 mg/kg, po administered once daily for 14 days; format: functional, organism-based; settings: time 14.0 day
[7] = Metabolic stability in human liver microsomes assessed as parent compound remaining at 1 uM incubated for 30 mins in presence of NADPH by LC-MS/MS analysis; format: ADME, Microsome; settings: read-out: Stability
Mus musculus [8] = experiment: Induction of gallbladder emptying in C57BL/6J mouse assessed as reduction in gallbladder weight at 10 mg/kg, po preadministered with compound for 30 mins followed by egg yolk administration and measured after 15 mins; format: functional, organism-based; settings: time 45.0 min
[9] = Cytotoxicity against CHO cells assessed as cellular ATP at 10 uM relative to control; format: toxicity, cell-based, Cricetulus griseus; settings: chinese hamster, read-out: Activity
[10] = Tmax in C57BL/6J mouse at 3 mg/kg, po measured at 0.25 to 24 hrs by LC-MS/MS analysis; format: ADME, organism-based; settings: in vivo, time 0.25-24 hrs
Mus musculus [11] = experiment: Protection against lithogenic diet induced cholesterol gallstone C57BL/6J mouse model assessed as reduction in cholesterol gallstone formation at 1 to 3 mg/kg, po administered once daily for 14 days; format: functional, organism-based; settings: dose 1-3 mg/kg, time 14.0 day
[12] = Observed AUC (0 to infinity) in C57BL/6J mouse at 1 mg/kg, iv measured at 0.05 to 24 hrs by LC-MS/MS analysis; format: ADME, organism-based; settings: in vivo, time 0.05-24 hrs
Mus musculus [13] = experiment: Protection against lithogenic diet induced cholesterol gallstone C57BL/6J mouse model assessed as reduction in large gallstone precipitate at 60 mg/kg, po administered once daily for 14 days; format: functional, organism-based; settings: time 14.0 day
[14] = Observed AUC (0 to infinity) in C57BL/6J mouse at 3 mg/kg, po measured at 0.25 to 24 hrs by LC-MS/MS analysis; format: ADME, organism-based; settings: in vivo, time 0.25-24 hrs
[15] = Observed clearance in C57BL/6J mouse at 1 mg/kg, iv measured at 0.05 to 24 hrs by LC-MS/MS analysis; format: ADME, organism-based; settings: in vivo, time 0.05-24 hrs
[16] = Cmax in C57BL/6J mouse at 3 mg/kg, po measured at 0.25 to 24 hrs by LC-MS/MS analysis; format: ADME, organism-based; settings: in vivo, time 0.25-24 hrs
[17] = Half-life in C57BL/6J mouse at 1 mg/kg, iv measured at 0.05 to 24 hrs by LC-MS/MS analysis; format: ADME, organism-based; settings: in vivo, time 0.05-24 hrs
[18] = Observed volume of distribution at steady state in C57BL/6J mouse at 1 mg/kg, iv measured at 0.05 to 24 hrs by LC-MS/MS analysis; format: ADME, organism-based; settings: in vivo, time 0.05-24 hrs, read-out: Vdss
Mus musculus [19] = experiment: Protection against lithogenic diet induced cholesterol gallstone C57BL/6J mouse model assessed as reduction in dense-cored gallstone precipitate at 1 to 3 mg/kg, po administered once daily for 14 days; format: functional, organism-based; settings: dose 1-3 mg/kg, time 14.0 day
Mus musculus [20] = experiment: Protection against lithogenic diet induced cholesterol gallstone C57BL/6J mouse model assessed as reduction in large gallstone precipitate at 1 to 3 mg/kg, po administered once daily for 14 days; format: functional, organism-based; settings: dose 1-3 mg/kg, time 14.0 day
[21] = Half-life in C57BL/6J mouse at 3 mg/kg, po measured at 0.25 to 24 hrs by LC-MS/MS analysis; format: ADME, organism-based; settings: in vivo, time 0.25-24 hrs
Mus musculus [22] = experiment: Protection against lithogenic diet induced cholesterol gallstone C57BL/6J mouse model assessed as reduction in cholesterol gallstone formation at 60 mg/kg, po administered once daily for 14 days; format: functional, organism-based; settings: time 14.0 day

Chain of Somatostatin receptor type 5 (Homo sapiens, UniProt P35346) (P35346 whole entry): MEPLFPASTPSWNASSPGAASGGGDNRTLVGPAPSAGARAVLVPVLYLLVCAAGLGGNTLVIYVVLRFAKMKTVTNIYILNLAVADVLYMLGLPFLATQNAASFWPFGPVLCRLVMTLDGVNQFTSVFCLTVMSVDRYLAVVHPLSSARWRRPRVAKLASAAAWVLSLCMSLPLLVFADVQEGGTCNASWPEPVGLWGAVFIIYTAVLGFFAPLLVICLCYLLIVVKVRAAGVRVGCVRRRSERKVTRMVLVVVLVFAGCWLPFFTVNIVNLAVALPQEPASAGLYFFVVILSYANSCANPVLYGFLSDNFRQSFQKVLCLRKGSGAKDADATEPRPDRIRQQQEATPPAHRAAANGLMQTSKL
Chain of Voltage-gated inwardly rectifying potassium channel KCNH2 (Q12809 whole entry): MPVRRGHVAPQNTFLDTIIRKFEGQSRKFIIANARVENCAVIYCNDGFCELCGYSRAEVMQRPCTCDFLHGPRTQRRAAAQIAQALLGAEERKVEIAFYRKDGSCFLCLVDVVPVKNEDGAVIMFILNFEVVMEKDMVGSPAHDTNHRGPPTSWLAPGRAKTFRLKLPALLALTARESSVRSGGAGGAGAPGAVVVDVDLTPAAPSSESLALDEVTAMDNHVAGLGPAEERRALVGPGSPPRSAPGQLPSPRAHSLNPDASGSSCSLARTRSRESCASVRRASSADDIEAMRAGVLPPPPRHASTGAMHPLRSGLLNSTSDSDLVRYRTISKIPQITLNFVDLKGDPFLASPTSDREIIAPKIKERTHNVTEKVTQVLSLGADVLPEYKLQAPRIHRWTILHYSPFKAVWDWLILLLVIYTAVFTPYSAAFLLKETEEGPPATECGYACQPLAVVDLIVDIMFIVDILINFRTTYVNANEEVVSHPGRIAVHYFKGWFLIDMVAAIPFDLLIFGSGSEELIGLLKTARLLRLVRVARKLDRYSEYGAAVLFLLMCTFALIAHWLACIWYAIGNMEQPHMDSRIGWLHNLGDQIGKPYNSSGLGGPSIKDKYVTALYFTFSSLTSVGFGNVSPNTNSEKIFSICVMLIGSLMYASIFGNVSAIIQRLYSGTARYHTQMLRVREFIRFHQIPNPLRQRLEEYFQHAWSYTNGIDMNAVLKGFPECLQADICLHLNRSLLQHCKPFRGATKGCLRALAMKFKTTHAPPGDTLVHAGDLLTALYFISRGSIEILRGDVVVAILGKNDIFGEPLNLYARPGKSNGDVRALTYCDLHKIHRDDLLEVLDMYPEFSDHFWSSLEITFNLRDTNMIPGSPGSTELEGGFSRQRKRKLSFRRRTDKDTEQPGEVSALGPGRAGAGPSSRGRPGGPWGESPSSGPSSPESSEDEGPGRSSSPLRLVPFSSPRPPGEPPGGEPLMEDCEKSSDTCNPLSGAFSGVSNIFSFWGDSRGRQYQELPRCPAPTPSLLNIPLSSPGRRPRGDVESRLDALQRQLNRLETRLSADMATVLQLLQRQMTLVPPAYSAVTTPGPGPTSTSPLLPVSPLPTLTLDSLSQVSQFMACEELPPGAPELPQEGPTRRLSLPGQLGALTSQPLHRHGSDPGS

Compound: CCOc1cc(CN2CCC(F)(CNc3ccc(C(=O)O)cc3Cl)CC2)cc(OCC)c1-c1ccc(F)cc1
- Activity (CHO): Non-Toxic
- IC50 [1]: 132 nM

Compound: CCOc1cc(CN2CCC(C)(COc3ccc(C(=O)O)cc3)CC2)cc(OCC)c1-c1ccc(F)cc1
- Activity (CHO): Non-Toxic
- IC50 [1]: 1860 nM
- IC50 [2]: 3410 nM

Compound: CCOc1cc(CN2CCC(F)(CNc3ccc(C(=O)O)c(C)c3)CC2)cc(OCC)c1-c1ccc(F)cc1
- Activity (CHO): Non-Toxic
- IC50 [1]: 97.5 nM

Compound: CCOc1cc(CN2CCC(F)(C(=O)Nc3ccc(C(=O)O)cc3)CC2)cc(OCC)c1-c1ccc(F)cc1
- Activity (CHO): Non-Toxic
- IC50 [1]: 2560 nM

Compound: CCOc1cc(CN2CCC(F)(CNc3ccc(N)cc3)CC2)cc(OCC)c1-c1ccc(F)cc1
- Activity (CHO): Non-Toxic
- IC50 [1]: 1770 nM

Compound: CCOc1cc(CN2CCC(C(=O)Nc3ccc(C(=O)O)cc3)CC2)cc(OCC)c1-c1ccc(F)cc1
- Activity (CHO): Non-Toxic
- IC50 [1]: 853 nM

Compound: CCOc1cc(CN2CCC(O)(C(=O)Nc3ccc(C(=O)O)cc3)CC2)cc(OCC)c1-c1ccc(F)cc1
- Activity (CHO): Non-Toxic
- IC50 [1]: 14700 nM
- IC50 [2]: 22900 nM

Compound: CCOc1cc(CN2CCC(F)(CNc3ccc(O)cc3)CC2)cc(OCC)c1-c1ccc(F)cc1
- Activity (CHO): Non-Toxic
- IC50 [1]: 1300 nM

Compound: CCOc1cc(CN2CCC(CNc3ccc(C(=O)O)cc3)CC2)cc(OCC)c1-c1ccc(F)cc1
- Activity (CHO): Non-Toxic
- IC50 [1]: 91.7 nM

Compound: CCOc1cc(CN2CCC(C)(CNc3ccc(C(=O)O)cc3)CC2)cc(OCC)c1-c1ccc(F)cc1
- Activity (CHO): Non-Toxic
- IC50 [1]: 128 nM

Compound: CCOc1cc(CN2CCC(F)(CNc3ccc(C(=O)O)cc3)CC2)cc(OCC)c1-c1ccc(F)cc1
- Activity (CHO): Non-Toxic
- remaining at 0.5 h, 1 µM [3]: 81.4%
- IC50 [1]: 13.9 nM
- IC50 [4]: > 20000 nM
- IC50 [2]: 27.6 nM

Compound: CCOc1cc(CN2CC(CNc3ccc(C(=O)O)cc3)C2)cc(OCC)c1-c1ccc(F)cc1
- Activity (CHO): Non-Toxic
- IC50 [1]: 157 nM

Compound: CCOc1cc(CN2CCC(F)(COc3ccc(C(=O)O)cc3)CC2)cc(OCC)c1-c1ccc(F)cc1
- Activity (CHO): Non-Toxic
- remaining at 0.5 h, 1 µM [3]: 61%
- IC50 [1]: 14.8 nM

Compound: CCOc1cc(CN2CCC(F)(CNc3ccc(C(=O)O)c(Cl)c3)CC2)cc(OCC)c1-c1ccc(F)cc1
- Activity (CHO): Non-Toxic
- IC50 [1]: 42.2 nM

Compound: CCOc1cc(CN2CCC(F)(CNc3ccc(C(=O)O)c(OC)c3)CC2)cc(OCC)c1-c1ccc(F)cc1
- bioavailability [5]: 29.3%
- Activity (Mus musculus [6]): Active
- Activity (CHO): Non-Toxic
- remaining at 0.5 h, 1 µM [3]: 59.8%
- remaining at 0.5 h, 1 µM [7]: 92.5%
- Activity (Mus musculus [8]): Active
- viability at 10 µM [9]: 92%
- Tmax [10]: 0.33 h
- Activity (Mus musculus [11]): Active
- AUC(0-inf) [12]: 562 ng·h/mL
- Activity (Mus musculus [13]): Active
- AUC(0-inf) [14]: 494 ng·h/mL
- IC50 [1]: 1.4 nM
- clearance [15]: 30.5 mL/min/kg
- Cmax [16]: 208 ng/mL
- IC50 [4]: > 20000 nM
- half-life [17]: 2.45 h
- IC50 [2]: 2.8 nM
- Vd [18]: 2.6 L/kg
- Activity (Mus musculus [19]): Active
- Activity (Mus musculus [20]): Active
- half-life [21]: 3.58 h

Compound: CCOc1cc(CN2CCC(C)(C(=O)Nc3ccc(C(=O)O)cc3)CC2)cc(OCC)c1-c1ccc(F)cc1
- Activity (CHO): Non-Toxic
- IC50 [1]: 12200 nM

Compound: CCOc1cc(CN2CCC(O)(COc3ccc(C(=O)O)cc3)CC2)cc(OCC)c1-c1ccc(F)cc1
- Activity (CHO): Non-Toxic
- IC50 [1]: 51.1 nM

Compound: CCOc1cc(CN2CCC(O)(Cc3ccc(C(=O)O)cc3)CC2)cc(OCC)c1-c1ccc(F)cc1
- Activity (CHO): Non-Toxic
- IC50 [1]: 176 nM

Compound: CCOc1cc(CN2CCC(Oc3ccc(C(=O)O)cc3)CC2)cc(OCC)c1-c1ccc(F)cc1
- Activity (CHO): Non-Toxic
- IC50 [1]: 44.3 nM

Compound: CCOc1cc(CN2CCC(F)(CNc3ccc(C(=O)O)cc3C)CC2)cc(OCC)c1-c1ccc(F)cc1
- Activity (CHO): Non-Toxic
- IC50 [1]: 25.4 nM

Compound: CCOc1cc(CN2CCC(O)(c3ccc(Cl)cc3)CC2)cc(OCC)c1-c1ccc(F)cc1
- Activity (CHO): Non-Toxic
- IC50 [1]: 11100 nM

Compound: CCOc1cc(CN2CC(Nc3ccc(C(=O)O)cc3)C2)cc(OCC)c1-c1ccc(F)cc1
- Activity (CHO): Non-Toxic
- IC50 [1]: 183 nM
- IC50 [2]: 1010 nM

Compound: CN(C)C(=O)C(CCN1CCC(O)(c2ccc(Cl)cc2)CC1)(c1ccccc1)c1ccccc1 [LOPERAMIDE]
- Activity (CHO): Non-Toxic
- IC50 [1]: 63600 nM
- IC50 [2]: 33100 nM

Compound: CCOc1cc(CN2CC(COc3ccc(C(=O)O)cc3)C2)cc(OCC)c1-c1ccc(F)cc1
- Activity (CHO): Non-Toxic
- IC50 [1]: 394 nM

Compound: CCOc1cc(CN2CCC(COc3ccc(C(=O)O)cc3)CC2)cc(OCC)c1-c1ccc(F)cc1
- IC50 [1]: 11.5 nM

Compound: CCOc1cc(CN2CCC(O)(CNc3ccc(C(=O)O)cc3)CC2)cc(OCC)c1-c1ccc(F)cc1
- Activity (CHO): Non-Toxic
- IC50 [1]: 52 nM

Compound: CCOc1cc(CN2CCC(F)(CNc3ccc(C(=O)O)cc3OC)CC2)cc(OCC)c1-c1ccc(F)cc1
- Activity (CHO): Non-Toxic
- IC50 [1]: 20.5 nM

Compound: C[C@H](CCC(=O)O)[C@H]1CC[C@H]2[C@@H]3[C@@H](O)C[C@@H]4C[C@H](O)CC[C@]4(C)[C@H]3CC[C@]12C
- Activity (Mus musculus [22]): Active
